# Results as given in patent US20130324707A1, “SYNTHETIC AMPHIPHILES FOR MEMBRANE PROTEIN MANIPULATION” (The Board of Trustees of the Leland Stanford Junior …, priority 2009, published 2013).
# Marks after values point to notes of the source that are not given here.
# What was measured:
# [1] = Critical micelle concentration (CMC) by fluorescent dye uptake; assay type: physicochemical
# Excerpt: The Critical Micelle Concentrations (CMCs) of compounds of the invention can be determined by standard techniques known to those of skill in the art. For example, CMCs of the carbohydrate-based amphiphiles described herein can be determined by monitoring uptake of a fluorescent dye (e.g., a dye such as 1,6-diphenylhexatriene) with increasing detergent concentration, monitored by fluorescence spectroscopy.
# [2] = test system: human β2 adrenergic receptor-T4-lyosome fusion protein (β2AR-T4L); test: Thermal stabilization (Tm) of β2AR-T4L in amphiphile, normalized peak ratio 341 nm/356 nm; design: Tm: unit: °C; conditions: for Tm: β2AR-T4L
# Excerpt: FIG. 3 illustrates the results of comparing MNGs to MPAs at 10×CMC for stabilization efficacy of β2 adrenergic receptor-T4-lyosome fusion protein (β2AR-T4L), according to an embodiment of the invention.
# FIG. 4 illustrates the results of comparing MNGs to MPAs at 50×CMC for stabilization efficacy of β2AR-T4L, according to an embodiment of the invention. Similar to FIG. 3, the horizontal dotted line extending from 50% on the y-axis in FIG. 4 indicates the melting temperature (Tm).
# The branched amphiphiles of the invention have shown to have several advantageous properties that match or surpass those of many known amphiphiles. The branched nature provide improved stabilization, attributable to the dual saccharide chains, and improved solubilization, attributable to the dual hydrophobic tail groups. FIGS. 3 and 4 show a comparative study showing normalized peak ratios (341 nm/356 nm) for six different amphiphiles (illustrated in Schemes F and G) from 25° C. to 85° C., at 10×CMC and 50×CMC for human β2 adrenergic receptor-T4-lyosome fusion protein (β2AR-T4L).
# [3] = 10 × CMC, scan from 25° C. to 85° C.
# [4] = concentration not given, matches most favourable (*) Tm minus DDM 63.5
SMILES,CMC [1] [mM],CMC (%) [1] [%],"ΔTm ([2]; 10 × CMC, relative to DDM)","Tm [2, 3]","ΔTm ([2]; 50 × CMC, relative to DDM)",Tm ([2]; 50 × CMC),"ΔTm [2, 4]"
OCC1OC(OCC(COC2OC(CO)C(O)C(O)C2O)(CSC2CCCCC2)CSC2CCCCC2)C(O)C(O)C1O (stereo not drawn) [GNG-1],2.1,0.13,–,–,–,–,–
O=C(NCC(CNC(=O)C1CCCC1)(COC1OC(CO)C(O)C(O)C1O)COC1OC(CO)C(O)C(O)C1O)C1CCCC1 (stereo not drawn) [GNG-4],72,4.7,–,–,–,–,–
CCCCCCOCC(COCCCCCC)(COC1OC(CO)C(O)C(O)C1O)COC1OC(CO)C(O)C(O)C1O (stereo not drawn) [GNG-6],1.55,0.08,–,–,–,–,–
CCCCCCCOCC(COCCCCCCC)(COC1OC(CO)C(O)C(O)C1O)COC1OC(CO)C(O)C(O)C1O (stereo not drawn) [GNG-7],0.1,0.0092,–,–,–,–,–
OCC1OC(OCC(COC2CCCCC2)(COC2CCCCC2)COC2OC(CO)C(O)C(O)C2O)C(O)C(O)C1O (stereo not drawn) [GNG-10],17,1.07,–,–,–,–,–
OCC1OC(OCC(COC2OC(CO)C(O)C(O)C2O)(CSCCc2ccccc2)CSCCc2ccccc2)C(O)C(O)C1O (stereo not drawn) [GNG-11],0.82,0.06,–,–,–,–,–
CCCCCCC(CCCCCC)(COC1OC(CO)C(O)C(O)C1O)COC1OC(CO)C(O)C(O)C1O (stereo not drawn) [GNG-12],1.02,0.058,–,–,–,–,–
CCCCCC(CCCCC)(COC1OC(CO)C(O)C(O)C1O)COC1OC(CO)C(O)C(O)C1O (stereo not drawn) [GNG-13],9.64,0.373,–,–,–,–,–
CCCCCOCC(COCCCCC)(COC1OC(CO)C(O)C(O)C1O)COC1OC(CO)C(O)C(O)C1O (stereo not drawn) [GNG-14],13.4,0.647,–,–,–,–,–
CCCCCCCCCCC(=O)NCC(CNC(=O)CCCCCCCCCC)(CO[C@H]1OC(CO)[C@H](O[C@@H]2OC(CO)[C@H](O)C(O)[C@H]2O)C(O)[C@H]1O)CO[C@H]1OC(CO)[C@H](O[C@@H]2OC(CO)[C@H](O)C(O)[C@H]2O)C(O)[C@H]1O (stereo partly drawn) [MNG-1],0.017,0.0019,+1.6,65.1 (n = 3)*,+2.1,65.1 (n = 3)*,+1.6
CCCCCCCCCCCC(CCCCCCCCCCC)(CO[C@H]1OC(CO)[C@H](O[C@@H]2OC(CO)[C@H](O)C(O)[C@H]2O)C(O)[C@H]1O)CO[C@H]1OC(CO)[C@H](O[C@@H]2OC(CO)[C@H](O)C(O)[C@H]2O)C(O)[C@H]1O (stereo partly drawn) [MNG-4],0.0037,0.00038,+0.6,64.1 (n = 3),+4.3,67.3 (n = 3)*,+3.8
CCCCCCCCCCOCC(COCCCCCCCCCC)(CO[C@H]1OC(CO)[C@H](O[C@@H]2OC(CO)[C@H](O)C(O)[C@H]2O)C(O)[C@H]1O)CO[C@H]1OC(CO)[C@H](O[C@@H]2OC(CO)[C@H](O)C(O)[C@H]2O)C(O)[C@H]1O (stereo partly drawn) [MNG-6],0.009,0.00096,+1.1,64.6 (n = 3),+4.1,67.1 (n = 3)*,+3.6
O=C(CCCC1CCCCC1)NCC(CNC(=O)CCCC1CCCCC1)(COC1OC(CO)C(OC2OC(CO)C(O)C(O)C2O)C(O)C1O)COC1OC(CO)C(OC2OC(CO)C(O)C(O)C2O)C(O)C1O (stereo not drawn) [MNG-9],0.39,0.043,–,–,–,–,–
O=C(CCCCC1CCCCC1)NCC(CNC(=O)CCCCC1CCCCC1)(COC1OC(CO)C(OC2OC(CO)C(O)C(O)C2O)C(O)C1O)COC1OC(CO)C(OC2OC(CO)C(O)C(O)C2O)C(O)C1O (stereo not drawn) [MNG-10],0.053,0.0059,–,–,–,–,–
CCCCCCCCCC(=O)NCC(CNC(=O)CCCCCCCCC)(COC1OC(CO)C(OC2OC(CO)C(O)C(O)C2O)C(O)C1O)COC1OC(CO)C(OC2OC(CO)C(O)C(O)C2O)C(O)C1O (stereo not drawn) [MNG-13],0.043,0.0047,–,–,–,–,–
